{"source": "ChEMBL document CHEMBL1201862", "about": "“PubChem BioAssay data set” (2004)", "key": {"[1]": {"target": "Intestinal-type alkaline phosphatase (Homo sapiens, UniProt P09923)", "sequence (P09923 whole entry)": "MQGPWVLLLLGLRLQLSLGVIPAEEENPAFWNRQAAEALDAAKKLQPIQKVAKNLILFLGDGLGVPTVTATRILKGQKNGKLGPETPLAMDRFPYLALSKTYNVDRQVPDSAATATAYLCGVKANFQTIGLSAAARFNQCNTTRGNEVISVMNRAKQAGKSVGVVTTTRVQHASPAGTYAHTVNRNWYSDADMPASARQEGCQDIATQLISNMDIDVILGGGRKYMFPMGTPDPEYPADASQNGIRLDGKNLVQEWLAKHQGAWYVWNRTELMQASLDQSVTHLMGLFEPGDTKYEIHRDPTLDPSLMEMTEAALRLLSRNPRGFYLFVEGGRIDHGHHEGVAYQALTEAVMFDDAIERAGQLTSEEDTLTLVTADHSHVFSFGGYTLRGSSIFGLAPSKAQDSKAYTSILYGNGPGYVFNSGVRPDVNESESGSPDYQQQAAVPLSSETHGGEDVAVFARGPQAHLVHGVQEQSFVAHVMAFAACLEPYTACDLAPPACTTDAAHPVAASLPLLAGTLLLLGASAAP", "assay": "Dose Response confirmation of uHTS hits from a small molecule inhibitors of human intestinal alkaline phosphatase via a luminescent assay. [Related pubchem assays (depositor defined):AID2544, AID2574]", "format": "functional"}, "[2]": {"assay": "Luminescence Cell-Based Dose Response HTS to Identify Activators of Luciferase Translation or Activity in H4 […] Cells. [Related pubchem assays: 1829 (Project Summary), 1814 (Primary HTS)]", "format": "functional"}, "[3]": {"target": "Luciferin 4-monooxygenase (Photinus pyralis, UniProt P08659)", "assay": "inhibition of purified Photinus pyralis luciferase – biochemical, luminescence, dose response (AID 1891)"}, "[4]": {"assay": "Luminescence Cell-Based Dose Confirmation HTS to Identify Inhibitors of Platelet Dense Granule Release. [Related pubchem assays: 1663 (Primary HTS), 1678 (Summary of Project)]", "format": "functional"}, "[5]": {"test_system": "INS1", "assay": "INS-1E survival protection against cytokine death – cell-based, luminescence, retest, dose response (AID 449756);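 also: cell death triggered by IL-1 beta plus TNF-alpha plus IFN-gamma mixture; protective hits raise ATP signal compared with cytokine alone wells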", "format": "functional", "conditions": "Rattus norvegicus, INS1"}, "[6]": {"assay": "NIH3T3 cell viability loss – ATP luminescence, mouse fibroblasts, counter-screen, dose response (AID 2010);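 also: cells exposed to compound for about 90 hours before reading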", "format": "functional, cell-based"}, "[7]": {"assay": "Trypanosoma cruzi growth suppression in host cells – NIH3T3 host cells, beta-gal luminescence, confirmation (AID 2044);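 also: intracellular parasites grown in NIH/3T3 mouse fibroblasts as host cells; inhibitors lower the luminescence signal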", "format": "functional, cell-based"}, "[8]": {"target": "G-protein coupled receptor 55 (Homo sapiens, UniProt Q9Y2T6)", "sequence (Q9Y2T6 whole entry)": "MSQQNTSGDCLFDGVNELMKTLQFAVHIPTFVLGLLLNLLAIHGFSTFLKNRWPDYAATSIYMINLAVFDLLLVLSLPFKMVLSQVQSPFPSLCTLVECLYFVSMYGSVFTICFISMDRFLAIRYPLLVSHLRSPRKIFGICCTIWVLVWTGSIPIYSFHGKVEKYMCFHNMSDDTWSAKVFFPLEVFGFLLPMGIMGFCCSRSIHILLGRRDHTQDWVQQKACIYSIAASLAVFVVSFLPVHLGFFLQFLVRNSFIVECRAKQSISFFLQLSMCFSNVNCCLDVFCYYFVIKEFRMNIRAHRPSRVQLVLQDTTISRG", "assay": "inhibition of LPI-stimulated GPR55 beta-arrestin translocation – imaging, U2OS, beta-arrestin-GFP, LPI agonist, primary screen (AID 2013);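 also: antagonist potency measured as reduced agonist-driven arrestin aggregation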", "format": "functional"}, "[9]": {"target": "Lysosomal acid glucosylceramidase (Homo sapiens, UniProt P04062)", "assay": "Dose response cell-based high throughput screening assay to identify enhancers of beta-glucosidase activity. [Related pubchem assays: 784 ]", "format": "functional"}, "[10]": {"assay": "Luminescence Cell-Based Dose Retest to Confirm Inhibitors of Cancer Stem Cells. [Related pubchem assays (depositor defined):AID2717, AID2721]", "format": "functional", "conditions": "Homo sapiens"}, "[11]": {"target": "T1, Coagulation factor XII (Homo sapiens, UniProt P00748)", "T1 sequence (P00748 whole entry)": "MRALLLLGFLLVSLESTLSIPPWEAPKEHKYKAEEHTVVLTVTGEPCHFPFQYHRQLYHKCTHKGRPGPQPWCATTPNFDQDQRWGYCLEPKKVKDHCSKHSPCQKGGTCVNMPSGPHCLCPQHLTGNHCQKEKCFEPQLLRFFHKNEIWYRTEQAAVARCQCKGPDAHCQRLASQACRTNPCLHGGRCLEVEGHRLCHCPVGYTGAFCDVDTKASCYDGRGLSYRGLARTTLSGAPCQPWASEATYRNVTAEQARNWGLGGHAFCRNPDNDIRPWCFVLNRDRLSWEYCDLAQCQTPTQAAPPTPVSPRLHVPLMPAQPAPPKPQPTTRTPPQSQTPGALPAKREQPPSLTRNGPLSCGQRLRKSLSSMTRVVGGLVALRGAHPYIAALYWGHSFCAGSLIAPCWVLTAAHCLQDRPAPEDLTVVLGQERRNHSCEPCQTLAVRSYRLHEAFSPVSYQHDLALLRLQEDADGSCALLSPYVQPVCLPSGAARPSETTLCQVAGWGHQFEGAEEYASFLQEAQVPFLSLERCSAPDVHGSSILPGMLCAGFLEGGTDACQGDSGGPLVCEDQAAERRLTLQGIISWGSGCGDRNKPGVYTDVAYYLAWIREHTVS", "assay": "activated coagulation factor XII inhibitor potency, concentration-effect curve, cell-free (AID 716)", "format": "functional"}, "[12]": {"target": "Voltage-dependent T-type calcium channel subunit alpha-1H (Homo sapiens, UniProt O95180)", "sequence (O95180 whole entry)": "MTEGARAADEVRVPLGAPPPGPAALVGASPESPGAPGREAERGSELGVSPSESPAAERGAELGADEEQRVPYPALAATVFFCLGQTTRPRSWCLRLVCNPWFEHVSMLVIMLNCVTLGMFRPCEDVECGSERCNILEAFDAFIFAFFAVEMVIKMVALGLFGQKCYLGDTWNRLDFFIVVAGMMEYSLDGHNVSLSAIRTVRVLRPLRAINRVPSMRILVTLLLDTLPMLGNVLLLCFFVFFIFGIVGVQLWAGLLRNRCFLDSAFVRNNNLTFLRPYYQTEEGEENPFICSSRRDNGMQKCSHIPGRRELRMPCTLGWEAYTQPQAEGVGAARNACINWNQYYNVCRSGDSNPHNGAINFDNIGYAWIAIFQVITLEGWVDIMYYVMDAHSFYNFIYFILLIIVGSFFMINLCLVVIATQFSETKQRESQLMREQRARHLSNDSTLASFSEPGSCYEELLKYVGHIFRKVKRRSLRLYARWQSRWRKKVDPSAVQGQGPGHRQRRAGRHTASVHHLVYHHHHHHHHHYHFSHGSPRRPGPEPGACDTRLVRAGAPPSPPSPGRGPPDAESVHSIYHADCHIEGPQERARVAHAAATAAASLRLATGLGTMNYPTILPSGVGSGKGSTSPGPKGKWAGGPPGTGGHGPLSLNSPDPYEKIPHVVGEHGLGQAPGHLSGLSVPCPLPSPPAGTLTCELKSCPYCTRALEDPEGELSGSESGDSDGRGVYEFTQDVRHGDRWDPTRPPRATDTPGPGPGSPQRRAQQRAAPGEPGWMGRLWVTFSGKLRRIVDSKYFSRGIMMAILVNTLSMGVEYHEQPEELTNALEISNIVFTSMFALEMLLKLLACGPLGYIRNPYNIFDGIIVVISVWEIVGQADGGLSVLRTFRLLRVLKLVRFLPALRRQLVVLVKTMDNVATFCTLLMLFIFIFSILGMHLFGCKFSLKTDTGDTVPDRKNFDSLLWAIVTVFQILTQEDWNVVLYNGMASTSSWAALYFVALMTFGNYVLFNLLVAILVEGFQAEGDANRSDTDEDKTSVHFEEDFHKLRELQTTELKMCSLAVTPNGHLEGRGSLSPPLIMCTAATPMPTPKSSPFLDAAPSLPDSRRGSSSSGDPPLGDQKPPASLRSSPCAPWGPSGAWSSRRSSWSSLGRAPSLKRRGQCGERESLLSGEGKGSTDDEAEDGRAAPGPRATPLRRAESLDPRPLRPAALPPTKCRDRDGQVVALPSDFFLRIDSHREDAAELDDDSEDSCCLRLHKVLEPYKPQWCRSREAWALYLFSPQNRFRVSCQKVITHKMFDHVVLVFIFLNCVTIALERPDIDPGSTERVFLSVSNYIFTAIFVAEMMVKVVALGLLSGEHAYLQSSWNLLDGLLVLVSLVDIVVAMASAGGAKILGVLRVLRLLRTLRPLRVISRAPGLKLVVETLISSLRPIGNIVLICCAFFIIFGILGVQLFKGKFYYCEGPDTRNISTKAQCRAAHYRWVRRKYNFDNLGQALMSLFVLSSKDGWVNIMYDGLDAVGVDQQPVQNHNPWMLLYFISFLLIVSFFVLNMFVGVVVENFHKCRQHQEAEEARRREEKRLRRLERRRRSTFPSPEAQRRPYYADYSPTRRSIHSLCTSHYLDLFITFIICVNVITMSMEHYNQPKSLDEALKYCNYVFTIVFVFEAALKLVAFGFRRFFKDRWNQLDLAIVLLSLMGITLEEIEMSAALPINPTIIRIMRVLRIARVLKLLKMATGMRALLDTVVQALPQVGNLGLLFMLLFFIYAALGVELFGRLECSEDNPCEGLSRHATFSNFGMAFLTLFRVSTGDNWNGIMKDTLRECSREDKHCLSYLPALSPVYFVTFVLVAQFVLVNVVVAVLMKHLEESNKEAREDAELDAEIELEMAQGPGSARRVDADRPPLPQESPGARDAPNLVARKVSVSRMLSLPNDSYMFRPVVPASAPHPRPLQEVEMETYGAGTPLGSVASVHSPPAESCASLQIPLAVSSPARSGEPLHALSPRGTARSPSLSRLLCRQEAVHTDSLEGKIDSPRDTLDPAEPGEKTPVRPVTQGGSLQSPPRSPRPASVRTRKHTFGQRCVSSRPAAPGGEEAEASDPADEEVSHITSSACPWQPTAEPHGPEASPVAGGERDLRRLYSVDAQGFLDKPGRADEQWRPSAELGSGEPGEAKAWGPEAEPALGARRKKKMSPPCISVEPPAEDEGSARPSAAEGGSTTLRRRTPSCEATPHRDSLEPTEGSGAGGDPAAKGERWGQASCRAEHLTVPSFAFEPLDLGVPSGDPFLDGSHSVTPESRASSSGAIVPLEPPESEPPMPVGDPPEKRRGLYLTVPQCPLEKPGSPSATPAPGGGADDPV", "format": "functional"}, "[13]": {"assay": "Luminescence Cell-Based Dose Response HTS to Identify Inhibitors of 5'UTR Stem-Loop Driven Prion Protein mRNA Translation in H4 Neuroglioblastoma Cells. [Related pubchem assays: 1827 (Project Summary), 1813 (Primary HTS)]", "format": "functional"}, "[14]": {"assay": "luciferase reporter signal suppression in cells – H4 neuroglioma cells, luminescence, dose response (AID 1990)", "format": "functional, cell-based"}, "[15]": {"test_system": "Streptococcus", "assay": "GAS UMAA2166 growth inhibition – luminescence, BacTiterGlo, counter-screen for streptokinase expression inhibitor project, dose response (AID 1915);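 also: potency for reduction of bacterial viability or growth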", "format": "functional, organism-based"}, "[16]": {"test_system": "Streptococcus sp. 'group A'", "assay": "Streptococcus pyogenes SK(-)GAS viability under kanamycin – luminescence, BacTiterGlo, confirmation, counter-screen for streptokinase expression inhibitor project, dose response (AID 1900)", "format": "functional, organism-based"}, "[17]": {"target": "T2, SUMO-activating enzyme (Homo sapiens, UniProt Q9UBT2)", "T2 sequence (Q9UBE0 whole entry)": "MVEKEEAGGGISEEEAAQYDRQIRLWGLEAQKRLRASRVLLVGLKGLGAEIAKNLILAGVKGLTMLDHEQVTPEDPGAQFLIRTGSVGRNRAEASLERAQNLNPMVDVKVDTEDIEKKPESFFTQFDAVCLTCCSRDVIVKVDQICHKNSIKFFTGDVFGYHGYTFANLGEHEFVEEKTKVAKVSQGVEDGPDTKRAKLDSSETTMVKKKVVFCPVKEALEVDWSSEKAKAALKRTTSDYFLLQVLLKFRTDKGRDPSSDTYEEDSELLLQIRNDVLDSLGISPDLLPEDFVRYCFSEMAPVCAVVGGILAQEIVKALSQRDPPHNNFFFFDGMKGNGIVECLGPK", "T2 sequence (Q9UBT2 whole entry)": "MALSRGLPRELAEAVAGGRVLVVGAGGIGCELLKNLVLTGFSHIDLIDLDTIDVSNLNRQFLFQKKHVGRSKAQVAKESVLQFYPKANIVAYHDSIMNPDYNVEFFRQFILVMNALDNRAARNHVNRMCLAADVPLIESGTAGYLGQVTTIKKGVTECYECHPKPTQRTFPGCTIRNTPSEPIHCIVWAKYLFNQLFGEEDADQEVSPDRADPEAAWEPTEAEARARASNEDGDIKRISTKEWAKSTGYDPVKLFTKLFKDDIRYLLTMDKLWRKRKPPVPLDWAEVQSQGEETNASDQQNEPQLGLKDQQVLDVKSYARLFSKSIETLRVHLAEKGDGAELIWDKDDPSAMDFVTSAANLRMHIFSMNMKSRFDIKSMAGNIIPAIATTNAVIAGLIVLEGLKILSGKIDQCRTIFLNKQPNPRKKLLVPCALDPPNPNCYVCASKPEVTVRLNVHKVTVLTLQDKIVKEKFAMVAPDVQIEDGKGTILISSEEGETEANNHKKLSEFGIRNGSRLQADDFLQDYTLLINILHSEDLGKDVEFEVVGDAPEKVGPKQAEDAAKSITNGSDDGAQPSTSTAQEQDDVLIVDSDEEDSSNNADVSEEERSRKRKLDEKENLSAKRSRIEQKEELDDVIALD", "assay": "blockers of SAE1/SAE2–UBC9 SUMO transfer – biochemical, HTRF, uHTS, primary screen (AID 2006)", "format": "protein-complex assay"}, "[18]": {"assay": "alpha-synuclein stem-loop luciferase translation blockers – H4 neuroglioma cells, luminescence, confirmation (AID 1988)", "format": "functional, cell-based"}, "[19]": {"assay": "blockers of HIV-1 ZM109 envelope-driven cell-cell fusion – HeLa effector, CEM target cells, luciferase, cherry-pick, dose response (AID 652058)", "format": "functional, cell-based"}, "[20]": {"assay": "blockers of HIV-1 envelope-mediated cell-cell fusion – cherry-pick, dose response (AID 652057)", "format": "functional, cell-based"}, "[21]": {"target": "T2, SUMO-activating enzyme", "assay": "blockers of UBC9-mediated SUMO conjugation – biochemical, AlphaScreen, SUMOylation inhibitor project, confirmation (AID 2018)", "format": "functional"}, "[22]": {"assay": "HIV-1 AD8 envelope cell-cell fusion blockers – cherry-pick, dose response (AID 652062);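 also: potency is for inhibitors of fusion seen as a drop in luminescence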", "format": "functional, cell-based"}, "[23]": {"assay": "off-target signal loss in HeLa-CEM21 co-culture – HeLa F-luc CTL cells, cherry-picked, counter-screen for HIV-1 Env fusion inhibitor project, dose response (AID 652040);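 also: potency for signal decrease marking cytotoxic or nonspecific inhibition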", "format": "functional, cell-based"}, "[24]": {"target": "T3, Hexokinase HKDC1 (Homo sapiens, UniProt Q2TB90)", "T3 sequence (Q2TB90 whole entry)": "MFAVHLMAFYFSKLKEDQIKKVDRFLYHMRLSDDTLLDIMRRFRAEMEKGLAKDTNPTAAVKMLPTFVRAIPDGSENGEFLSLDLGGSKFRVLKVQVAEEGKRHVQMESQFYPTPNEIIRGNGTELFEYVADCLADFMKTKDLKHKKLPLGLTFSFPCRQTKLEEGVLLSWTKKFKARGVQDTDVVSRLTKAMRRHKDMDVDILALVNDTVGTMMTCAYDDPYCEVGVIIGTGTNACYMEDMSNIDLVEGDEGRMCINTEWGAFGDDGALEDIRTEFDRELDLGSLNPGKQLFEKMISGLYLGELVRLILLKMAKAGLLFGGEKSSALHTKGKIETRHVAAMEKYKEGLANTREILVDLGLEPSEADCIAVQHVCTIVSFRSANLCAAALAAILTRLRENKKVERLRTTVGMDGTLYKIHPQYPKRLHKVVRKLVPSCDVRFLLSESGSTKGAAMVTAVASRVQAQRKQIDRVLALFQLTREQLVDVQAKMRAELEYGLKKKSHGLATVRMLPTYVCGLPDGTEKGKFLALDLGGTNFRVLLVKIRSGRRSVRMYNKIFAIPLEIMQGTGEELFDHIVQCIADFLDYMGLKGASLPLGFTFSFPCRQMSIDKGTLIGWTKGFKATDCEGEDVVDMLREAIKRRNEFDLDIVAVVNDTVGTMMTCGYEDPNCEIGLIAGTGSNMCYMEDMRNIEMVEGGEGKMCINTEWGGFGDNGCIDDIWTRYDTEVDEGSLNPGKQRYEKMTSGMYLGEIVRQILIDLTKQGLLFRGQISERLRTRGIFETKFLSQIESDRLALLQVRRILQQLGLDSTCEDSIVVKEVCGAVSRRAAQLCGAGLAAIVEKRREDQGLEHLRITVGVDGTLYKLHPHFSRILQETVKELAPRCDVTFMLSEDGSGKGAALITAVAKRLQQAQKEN", "assay": "inhibition of HKDC1 glucose phosphorylation – biochemical, W721R variant, dose response (AID 504729)", "format": "functional"}, "[25]": {"assay": "cells", "format": "functional"}, "[26]": {"assay": "THP-1 cell cytotoxicity, dose response, cytotoxicity control for non-replicating M. tuberculosis project (AID 489025)", "format": "functional"}, "[27]": {"assay": "HepG2 cell cytotoxicity, dose response, cytotoxicity control for non-replicating M. tuberculosis project (AID 489018)", "format": "functional", "conditions": "Mycobacterium tuberculosis"}, "[28]": {"target": "T4, Kappa-type opioid receptor (Homo sapiens, UniProt P41145)", "T4 sequence (P41145 whole entry)": "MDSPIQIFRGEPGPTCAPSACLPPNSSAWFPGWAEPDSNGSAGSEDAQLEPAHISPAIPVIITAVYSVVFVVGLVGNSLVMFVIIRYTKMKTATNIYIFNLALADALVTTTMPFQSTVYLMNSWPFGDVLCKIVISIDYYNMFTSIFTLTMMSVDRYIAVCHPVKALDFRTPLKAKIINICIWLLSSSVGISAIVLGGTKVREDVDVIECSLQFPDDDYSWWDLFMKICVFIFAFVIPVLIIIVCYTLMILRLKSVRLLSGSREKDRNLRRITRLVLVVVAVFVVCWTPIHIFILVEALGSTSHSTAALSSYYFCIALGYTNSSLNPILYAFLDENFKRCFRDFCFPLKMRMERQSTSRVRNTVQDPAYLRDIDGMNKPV", "format": "functional"}, "[29]": {"target": "T4, Kappa-type opioid receptor", "format": "functional", "remark": "listed apart in the source"}, "[30]": {"target": "Beta-galactosidase (Escherichia coli, UniProt Q8VNN2)", "format": "functional"}}, "note": "Activity calls are given as the source filed them."}
{"smiles": "CCOC(=O)c1cnc(SCC(=O)c2ccccc2)nc1N", "values": [{"measurement": "IC50", "setting": "[1]", "result": "> 100 µM (inactive)"}, {"measurement": "EC50", "setting": "[2]", "result": "0.195 µM (active)"}]}
{"smiles": "COC(=O)c1ccc(C(=O)OC)c(NC(=O)Nc2ccc3c(c2)OCO3)c1", "values": [{"measurement": "EC50", "setting": "[3]", "result": "> 112 µM (not active)"}, {"measurement": "EC50", "setting": "[4]", "result": "> 112 µM (not active)"}, {"measurement": "IC50", "setting": "[1]", "result": "> 100 µM (inactive)"}]}
{"smiles": "COc1ccc(CNCCC(c2ccccc2)c2ccc3c(c2)OCO3)cc1", "note": "(stereo unspecified)", "values": [{"measurement": "AC50", "setting": "[5]", "result": "9.28 µM (active)"}, {"measurement": "EC50", "setting": "[6]", "result": "> 60 µM (not active)"}, {"measurement": "EC50", "setting": "[7]", "result": "3.27 µM (active)"}, {"measurement": "IC50", "setting": "[8]", "result": "0.965 µM (active)"}]}
{"smiles": "N#CCc1ccc(NC(=O)Nc2cccc(Cl)c2)cc1", "values": [{"measurement": "EC50", "setting": "[9]", "result": "> 10 µM (not active)"}, {"measurement": "AC50", "setting": "[10]", "result": "5.19 µM (active)"}]}
{"smiles": "Cc1noc(C)c1C(=O)NC(C)c1ccc2c(c1)OCO2", "note": "(stereo unspecified)", "values": [{"measurement": "IC50", "setting": "[11]", "result": "> 50 µM (inactive)"}]}
{"smiles": "Cc1ccc(NC(=O)c2cc(S(=O)(=O)N3CCCCC3)cs2)cc1", "values": [{"measurement": "EC50", "setting": "[12]", "result": "10.3 µM (active)"}]}
{"smiles": "CCCCCCCn1c(NC(=O)CC)nc2ccccc21", "values": [{"measurement": "EC50", "setting": "[13]", "result": "13.8 µM (active)"}, {"measurement": "EC50", "setting": "[14]", "result": "11.4 µM (active)"}, {"measurement": "EC50", "setting": "[15]", "result": "10.1 µM (active)"}, {"measurement": "EC50", "setting": "[16]", "result": "2.13 µM (active)"}, {"measurement": "IC50", "setting": "[17]", "result": "7.82 µM (active)"}, {"measurement": "EC50", "setting": "[18]", "result": "9.8 µM (active)"}, {"measurement": "AC50", "setting": "[19]", "result": "47.3 µM (active)"}, {"measurement": "AC50", "setting": "[20]", "result": "34.3 µM (active)"}, {"measurement": "IC50", "setting": "[21]", "result": "1.62 µM (active)"}, {"measurement": "AC50", "setting": "[22]", "result": "39.4 µM (active)"}, {"measurement": "AC50", "setting": "[23]", "result": "> 70 µM (inactive)"}]}
{"smiles": "O=C(CN1C(=O)C2C3C=CC(C3)C2C1=O)NCCC1=CCCCC1", "note": "(stereo unspecified)", "values": [{"measurement": "IC50", "setting": "[11]", "result": "> 50 µM (inactive)"}]}
{"smiles": "c1ccc(OCCSc2nc3ccccc3[nH]2)cc1", "values": [{"measurement": "EC50", "setting": "[12]", "result": "5.96 µM (active)"}]}
{"smiles": "O=C(O)c1ccc2ncsc2c1", "values": [{"measurement": "IC50", "setting": "[24]", "result": "7.69 µM (active)"}]}
{"smiles": "COC(=O)C1=CN(C(C)C)C=C(C(=O)OC)C1c1cc2c(cc1Br)OCO2", "values": [{"measurement": "IC50", "setting": "[8]", "result": "4.97 µM (active)"}]}
{"smiles": "Clc1c(OCCCn2ccnc2)ccc2ccccc12", "values": [{"measurement": "IC50", "setting": "[25]", "result": "9.76 µM (active)"}, {"measurement": "EC50", "setting": "[6]", "result": "> 60 µM (not active)"}, {"measurement": "EC50", "setting": "[7]", "result": "0.708 µM (active)"}, {"measurement": "CC50", "setting": "[26]", "result": "37.1 µM (active)"}, {"measurement": "CC50", "setting": "[27]", "result": "> 20 µM (active)"}]}
{"smiles": "Fc1ccccc1/C=N/Nc1nc(-c2ccccn2)nc2ccccc12", "values": [{"measurement": "EC50", "setting": "[13]", "result": "1.03 µM (active)"}, {"measurement": "AC50", "setting": "[5]", "result": "0.984 µM (active)"}, {"measurement": "EC50", "setting": "[6]", "result": "54.9 µM (active)"}, {"measurement": "IC50", "setting": "[28]", "result": "> 32", "unit": "µM"}, {"measurement": "EC50", "setting": "[7]", "result": "0.357 µM (active)"}, {"measurement": "EC50", "setting": "[18]", "result": "0.456 µM (active)"}, {"measurement": "IC50", "setting": "[29]", "result": "6.19 µM (active)"}, {"measurement": "EC50", "setting": "[30]", "result": "> 31.5 µM (inactive)"}]}
